Source: patent publication US7858635B2 (priority 2005, dated 2010)
Like-named read-outs stand apart in the source and are kept apart here.

How the values were obtained:
[1] = target: T1, M1 muscarinic receptor (Homo sapiens, UniProt P11229); experiment: Functional mobilization of intracellular calcium (FLIPR, Fluo-3), M1-CHO cells; assay type: cell-based; conditions: for Emax: read-out: M1 Efficacy
T1 construct: expressed in transfected cells; host or cells: CHO cells (M1-CHO, under zeocin and G418 selection)
T1 sequence (P11229 1-460): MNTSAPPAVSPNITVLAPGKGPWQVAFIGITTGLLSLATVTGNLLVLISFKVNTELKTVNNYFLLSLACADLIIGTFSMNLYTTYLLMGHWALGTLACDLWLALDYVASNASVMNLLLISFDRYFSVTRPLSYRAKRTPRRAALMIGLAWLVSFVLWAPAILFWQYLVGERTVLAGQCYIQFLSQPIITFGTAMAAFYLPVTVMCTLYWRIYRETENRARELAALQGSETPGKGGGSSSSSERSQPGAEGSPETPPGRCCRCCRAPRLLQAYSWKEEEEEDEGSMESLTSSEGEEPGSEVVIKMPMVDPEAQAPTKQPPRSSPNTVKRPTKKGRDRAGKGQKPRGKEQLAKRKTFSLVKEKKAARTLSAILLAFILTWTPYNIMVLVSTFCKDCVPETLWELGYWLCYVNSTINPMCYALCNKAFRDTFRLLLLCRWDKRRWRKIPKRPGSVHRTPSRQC
How it was run: (§1)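 Fluo-3 read-out, ex 488/em 540 nm, 60 sec on FLIPR 3. For agonist mode, compound added directly; for inhibition, 15 min compound pre-incubation before carbachol at EC80 (added as a 3× solution), or co-application. Buffer pH 7.4 with 1 mM probenecid; DMSO 0.5%.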

[2] = target: T2, M4 muscarinic receptor (Homo sapiens, UniProt P08173); experiment: Functional mobilization of intracellular calcium (FLIPR, Fluo-3), M4-CHO cells; assay type: cell-based; conditions: for Emax: read-out: M4 Efficacy
T2 construct: expressed in transfected cells; host or cells: CHO cells (M4-CHO, under puromycin, zeocin and blasticidin selection)
T2 sequence (P08173 1-479): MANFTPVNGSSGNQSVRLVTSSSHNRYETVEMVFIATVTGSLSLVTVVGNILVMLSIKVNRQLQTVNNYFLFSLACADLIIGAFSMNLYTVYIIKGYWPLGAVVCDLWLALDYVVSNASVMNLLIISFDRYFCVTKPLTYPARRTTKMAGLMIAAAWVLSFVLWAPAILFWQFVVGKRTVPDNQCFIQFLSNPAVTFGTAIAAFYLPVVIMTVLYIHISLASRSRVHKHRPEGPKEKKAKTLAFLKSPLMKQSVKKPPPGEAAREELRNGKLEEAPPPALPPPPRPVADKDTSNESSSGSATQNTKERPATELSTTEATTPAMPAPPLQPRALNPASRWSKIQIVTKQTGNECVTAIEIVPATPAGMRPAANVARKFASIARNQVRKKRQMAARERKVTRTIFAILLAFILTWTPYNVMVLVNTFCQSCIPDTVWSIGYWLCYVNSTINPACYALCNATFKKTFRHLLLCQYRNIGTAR
How it was run: as §1

[3] = compound nos. 1-454, 100% efficacy is the maximum response obtained with the Carbachol control
[4] = compound nos. 1-454, M1-CHO cells, calcium mobilization
[5] = compound nos. 1-454, M4-CHO cells, calcium mobilization
[6] = compound nos. 455-509, 100% efficacy is the maximum response obtained with the Carbachol control

Row | SMILES | Emax [1, 3] | M1 Activity [1, 4] | Emax [2, 3] | M4 Activity [2, 5] | further results
1 | Fc1ccc2c(c1)C1(CCN(CC3CCCCC3)CC1)CN2 [compound 239] | 65 to 85% | + (activity was measured to be greater than or equal to 3.0 μM) | 55 to 70% | + (activity was measured to be greater than or equal to 4.0 μM) | –
2 | CCOC(=O)N1CCC(N2CCC3(CC2)CN(C(=O)N(C)c2ccccc2)c2ccc(F)cc23)CC1 [compound 169] | 65 to 85% | +++ (activity was measured to be less than or equal to 0.7 μM) | > 70% | + (activity was measured to be greater than or equal to 4.0 μM) | –
3 | CCOC(=O)N1CCC(N2CCC3(CC2)CN(C(=O)C2CCCC2)c2ccc(F)cc23)CC1 [compound 17] | < 65% | ++ (activity was measured to be between 0.7 μM and 3.0 μM) | 55 to 70% | ++ (activity was measured to be between 0.1 μM and 4.0 μM) | –
4 | COCCOC(=O)N1C2CCC1CC(N1CCC3(CC1)C(=O)Nc1ccccc13)C2 (centres unmarked) [compound 71] | < 65% | +++ (activity was measured to be less than or equal to 0.7 μM) | < 55% | ++ (activity was measured to be between 0.1 μM and 4.0 μM) | –
5 | CC(C)C(=O)N[C@H]1CC2(CCN(C[C@H]3C[C@H]4CC[C@H]3C4)CC2)c2ccccc21 [compound 55] | > 85% | +++ (activity was measured to be less than or equal to 0.7 μM) | 55 to 70% | +++ (activity was measured to be less than or equal to 0.1 μM) | –
6 | Clc1ccc2c(c1)C1(CCO2)CCN(CC2CC3C=C[C@H]2C3)CC1 (stereo in doubt) [compound 64, 1′-((1R,2R,4R)-bicyclo[2.2.1]hept-5-en-2-ylmethyl)-6-chlorospiro[chroman-4,4′-piperidine]] | < 65% | +++ (activity was measured to be less than or equal to 0.7 μM) | < 55% | ++ (activity was measured to be between 0.1 μM and 4.0 μM) | –
7 | CC(C)OC(=O)N1C2CCC1CC(N1CCC3(CC1)CN(C(=O)O[C@@H]1CCOC1)c1ccc(F)cc13)C2 (some centres unmarked) [compound 402] | – | – | – | – | M1 Activity ([1]; compound nos. 1-454): ++ (activity was measured to be between 0.7 μM and 3.0 μM); M1 Efficacy [1, 3]: ++ (efficacy was calculated to be between 85% and 65%); M4 Activity ([2]; compound nos. 1-454): + (activity was measured to be greater than or equal to 4.0 μM); M4 Efficacy [2, 3]: + (efficacy was calculated to be 55% or less)
8 | COc1cccc(N2CCC(N3CCC4(CC3)CN(C(=O)N(C)C)c3ccc(F)cc34)CC2)c1 [compound 441] | 65 to 85% | – | 55 to 70% | – | M1 Activity ([1]; compound nos. 1-454): ++ (activity was measured to be between 0.7 μM and 3.0 μM); M4 Activity ([2]; compound nos. 1-454): +++ (activity was measured to be less than or equal to 0.1 μM)
9 | CC(=O)CN1CC2(CCN(C[C@@H]3C[C@H]4C=C[C@H]3C4)CC2)c2cc(F)ccc21 [compound 385] | 65 to 85% | – | < 55% | – | M1 Activity ([1]; compound nos. 1-454): ++ (activity was measured to be between 0.7 μM and 3.0 μM); M4 Activity ([2]; compound nos. 1-454): + (activity was measured to be greater than or equal to 4.0 μM)
10 | CC(=O)N1CC2(CCN(C3CCN(C(=O)O[C@H]4CCOC4)CC3)CC2)c2cc(F)ccc21 [compound 418] | < 65% | – | < 55% | – | M1 Activity ([1]; compound nos. 1-454): + (activity was measured to be greater than or equal to 3.0 μM); M4 Activity ([2]; compound nos. 1-454): + (activity was measured to be greater than or equal to 4.0 μM)
11 | CCCOC(=O)N1CCC(N2CCC3(CC2)CN(C(=O)N(C)C)c2ccc(F)cc23)CC1 [compound 91] | 65 to 85% | +++ (activity was measured to be less than or equal to 0.7 μM) | < 55% | ++ (activity was measured to be between 0.1 μM and 4.0 μM) | –
12 | CC(=O)N1CC2(CCN(C3CCN(C(=O)O[C@@H]4CCOC4)CC3)CC2)c2cc(C)ccc21 [compound 279] | < 65% | ++ (activity was measured to be between 0.7 μM and 3.0 μM) | < 55% | ++ (activity was measured to be between 0.1 μM and 4.0 μM) | –
13 | CCOC(=O)N1CCC(N2CCC3(CC2)CN(C(=O)OCC(C)(C)C)c2ccc(F)cc23)CC1 [compound 63] | < 65% | +++ (activity was measured to be less than or equal to 0.7 μM) | < 55% | + (activity was measured to be greater than or equal to 4.0 μM) | –
14 | Cc1ccc2c(c1)C1(CCN(C3C4CCCC3CCC4)CC1)CN2 (centres unmarked) [compound 72] | 65 to 85% | +++ (activity was measured to be less than or equal to 0.7 μM) | 55 to 70% | ++ (activity was measured to be between 0.1 μM and 4.0 μM) | –
15 | CC(=O)N(C)[C@H]1CC2(CCN(C[C@H]3C[C@H]4CC[C@@H]3C4)CC2)c2ccccc21 [compound 190, N—((S)-1′-((1R,2S,4S)-bicyclo[2.2.1]heptan-2-ylmethyl)-2,3-dihydrospiro[indene-1,4′-piperidine]-3-yl)-N-methylacetamide] | > 85% | + (activity was measured to be greater than or equal to 3.0 μM) | 55 to 70% | + (activity was measured to be greater than or equal to 4.0 μM) | –
16 | CS(=O)(=O)N1CC2(CCN(C3CC4CCC(C3)N4C(=O)O[C@H]3CCOC3)CC2)c2cc(F)ccc21 (some centres unmarked) [compound 388] | 65 to 85% | – | < 55% | – | M1 Activity ([1]; compound nos. 1-454): +++ (activity was measured to be less than or equal to 0.7 μM); M4 Activity ([2]; compound nos. 1-454): + (activity was measured to be greater than or equal to 4.0 μM)
17 | c1ccc2c(c1)NCC21CCN(CC2CC3CCC2C3)CC1 (centres unmarked) [compound 110] | < 65% | +++ (activity was measured to be less than or equal to 0.7 μM) | < 55% | ++ (activity was measured to be between 0.1 μM and 4.0 μM) | –
18 | CS(=O)(=O)N[C@@H]1CC2(CCN(C[C@H]3C[C@H]4CC[C@H]3C4)CC2)c2ccccc21 [compound 227] | > 85% | +++ (activity was measured to be less than or equal to 0.7 μM) | > 70% | +++ (activity was measured to be less than or equal to 0.1 μM) | –
19 | CC(=O)N1CC2(CCN(C3CCC(C(F)(F)F)CC3)CC2)c2cc(F)ccc21 (centres unmarked) [compound 236] | 65 to 85% | +++ (activity was measured to be less than or equal to 0.7 μM) | 55 to 70% | ++ (activity was measured to be between 0.1 μM and 4.0 μM) | –
20 | Cc1csc(N2CCC(N3CCC4(CC3)CN(C(=O)N(C)C)c3ccccc34)CC2)n1 [compound 499] | – | – | – | – | Emax [1, 6]: > 100%; M1 Activity ([1]; compounds 455-509): + (activity was measured to be greater than or equal to 5.0 μM); Emax [2, 6]: 25 to 100%; M4 Activity ([2]; compounds 455-509): ++ (activity was measured to be between 2.0 μM and 5.0 μM)
